Like-named read-outs stand apart in the source and are kept apart here.
What was measured:
[1] = system: HEK293T (human embryonic kidney cell); assay: cells
Excerpt: (§1) HMLER (human mammary endothelial cancer cells), HMLER-shEcad (human mammary endothelial cancer stem cells), and MCF-10A (healthy human mammary endothelial) cells were maintained in Mammary Epithelial Cell Growth Medium (MEGM) with supplements and growth factors: bovine pituitary extract (BPE), hydrocortisone, human epidermal growth factor (hEGF), insulin, and gentamicin/amphotericin-B. HEK293T (human embryonic kidney cell), and U2OS (Homo sapiens bone osteosarcoma) cells were maintained in Dulbecco's Modified Eagle's Medium (DMEM) with a final concentration of 10% fetal bovine serum. The cells were grown in T75 flask at 310 K in a humidified atmosphere containing 5% CO2.
(§2) The colourimetric MTT (3-(4,5-dimethylthiazol-2-yl)-2,5-diphenyltetrazolium bromide) assay was used to determine the toxicity of the anticancer peptides and conventional anticancer drugs. 5×10^3 cells were seeded in each well of a 96-well microplate. The cells were incubated overnight. Elevated concentrations of the compounds (0, 0.1, 0.2, 0.4, 0.8, 1.6, 3.1, 6.3, 12.5, 25, 50 and 100 μM) were added and incubated for 72 hr with a total volume 200 μL. The stock solutions of the compounds were prepared as 5 mM solutions in DMSO and diluted using media or in pure water. The final concentration of DMSO in each well was either 0.5% or 0% and this amount was present in the untreated control. After 72 hr, 20 μL of a 4 mg/mL solution of MTT in PBS was added to each well, and the plate was incubated for an additional 4 hr. The MEGM/MTT mixture was aspirated and 100 μL of DMSO was added to dissolve the resulting purple formazan crystals. The absorbance of the solutions in each well was read at 550 nm wavelength. Absorbance values were normalized to either DMSO-containing or non DMSO-containing control wells and plotted as concentration of test compound versus % cell viability. IC50 values were interpolated from the resulting dose dependent curves.
(§3) The peptides were screened against several different human cell lines and their cytotoxicity were determined. Cell lines utilised include MCF-10A (human breast epithelial cell), HMLER (human breast cancer bulk cell), HMLER-shEcad (human breast cancer stem cell), HEK293T (human embryonic kidney cell), and U2OS (human bone osteosarcoma).

[2] = system: HMLER (human breast cancer bulk cell); assay: cells
Excerpt: as §1, §2, §3

[3] = system: HMLER-shEcad (human breast cancer stem cell); assay: cells
Excerpt: as §1, §2, §3

[4] = system: U2OS (human bone osteosarcoma)
Excerpt: as §1, §2, §3

[5] = Tryptophan fluorescent binding assay, POPC vesicles; conditions: 50 μM peptide, PBS pH 7.4, lipid per peptide
Procedure: (§4) In brief, 50 μM peptides were fixed and incubated with titrated POPC vesicles (black) or 3POPC/1POPG vesicles (grey) at concentrations of 0, 12.5, 25, 50, 100, 250, 500, 1000, 2500, and 5000 μM in phosphate buffered saline (1×, pH 7.4). The lipid concentration that causes 50% peptide binding was determined using a tryptophan fluorescent binding assay and the values are shown as lipid per peptide.
(§5) The lipids 1-palmitoyl-2-oleoyl-sn-glycero-3-phosphocholine (POPC), 1-palmitoyl-2-oleoyl-snglycero-3-phospho-(1′-rac-glycerol) (POPG) were purchased from Avanti Polar Lipids and dissolved in chloroform. Large unilamellar vesicles (LUVs) were produced by extrusion through 100 nm pore filter using an extruder and filters purchased from Avanti Polar Lipids.
(§6) Peptides (50 μM) and POPC/POPG LUVs (600 μM) were prepared in 10 mM phosphate buffer (pH 7.0). The solutions were incubated and measured after 60 minutes. Excitation was fixed at 280 nm (slit 9 nm) and emission was collected from 300 to 450 nm (slit 9 nm). The spectra were recorded using a Synergy H1 Hybrid Multi-Mode Reader (FIG. 3A) and Cytation™ 5 Cell Imaging Multi-Mode Reader (FIG. 2) from BioTek and were averaged over 3 scans.
(§7) Table 3 illustrates the lipid concentration-induced 50% peptide binding onto a liposome. 50 μM peptide was fixed and incubated with titrated lipid (POPC vesicles or 3POPC/1POPG vesicles) at concentrations of 0, 12.5, 25, 50, 100, 250, 500, 1000, 2500, and 5000 μM in phosphate buffered saline (1×, pH 7.4). The lipid concentration that causes 50% peptide binding was determined using tryptophan fluorescent binding assay and the values are shown as lipid per peptide. †N-terminus is free, C-terminus: —W—NH2.

[6] = Tryptophan fluorescent binding assay, 3POPC/1POPG vesicles; conditions: 50 μM peptide, PBS pH 7.4, lipid per peptide
Procedure: as §4, §5, §6, §7

[7] = ANTS/DPX liposome leakage assay, POPC vesicles; assay type: biochemical; conditions: 0.5 mM vesicles; for Peptide Concentration-induced 50% ANTS/DPX leakage at pH 4.8, POPC Vesicle: pH 4.8, lipid per peptide; for Peptide Concentration-induced 50% ANTS/DPX leakage at pH 7.4, POPC Vesicle: pH 7.4, lipid per peptide
Procedure: (§8) In brief, 0.5 mM POPC vesicles (grey) or POPC:POPG vesicles (ratio 3:1, black) were incubated with peptide concentrations of 0, 0.02, 0.04, 0.08, 0.16, 0.32, 0.64, 1.25, 2.5, 5, 10, and 20 μM in each A) hydrochloric acid-adjusted phosphate buffered saline (1×, pH 4.8) and B) phosphate buffered saline (1×, pH 7.4).
as §5
(§9) 5 mM ANTS (8-aminonaphthalene-1,3,6-trisulfonic acid, disodium salt) and 12.5 mM DPX (p-xylene-bis-pyridinium bromide) were entrapped in 0.1 μm diameter extruded vesicles with lipids. Gel filtration chromatography using a Sephadex G-100 (GE Healthcare Life Sciences Inc) was used to remove external free ANTS/DPX from LUVs with entrapped contents. LUVs were diluted to 0.5 mM and used to measure the leakage activity by addition of aliquots of peptides. Leakage was measured after 3 h incubation. 10% Triton was used as the positive control to measure the maximum leakage of the vesicle. Fluorescence emission spectra were recorded using excitation and emission wavelength of 350 nm and 510 nm for ANTS/DPX using a BioTek Synergy H1 Hybrid Multi-Mode Reader.
(§10) Table 4 illustrates peptide concentration-induced 50% ANTS/DPX liposome leakage. 0.5 mM POPC and 3POPC/1POPG vesicles were fixed and incubated with titrated peptide concentration ([…]) each in phosphate buffered saline (1×, pH 7.4) and hydrochloric acid-adjusted phosphate buffered saline (1×, pH 4.8). The values are shown as lipid per peptide. †N-terminus is free, C-terminus: —W—NH2.

[8] = ANTS/DPX liposome leakage assay, 3POPC/1POPG vesicles; assay type: biochemical; conditions: 0.5 mM vesicles; for Peptide Concentration-induced 50% ANTS/DPX leakage at pH 4.8, 3POPC/1POPG Vesicle: pH 4.8, lipid per peptide; for Peptide Concentration-induced 50% ANTS/DPX leakage at pH 7.4, 3POPC/1POPG Vesicle: pH 7.4, lipid per peptide
Procedure: as §8, §5, §9, §10

Compound | IC50 ([1]; 72 h) [µM] | IC50 ([2]; 72 h) [µM] | IC50 ([3]; 72 h) [µM] | IC50 ([4]; 72 h) [µM] | IC50 ([1]; read-out: IC50 HEK293T, MTT, 72 hr) [µM] | IC50 ([2]; read-out: IC50 HMLER, MTT, 72 hr) [µM] | IC50 ([3]; read-out: IC50 HMLER-shEcad, MTT, 72 hr) [µM] | IC50 ([4]; read-out: IC50 U20S, MTT, 72 hr) [µM] | Lipid Concentration-induced 50% Peptide Binding, POPC Vesicle [5] [L/P] | Lipid Concentration-induced 50% Peptide Binding, 3POPC/1POPG Vesicle [6] [L/P] | Peptide Concentration-induced 50% ANTS/DPX leakage at pH 4.8, POPC Vesicle [7] [L/P] | Peptide Concentration-induced 50% ANTS/DPX leakage at pH 7.4, POPC Vesicle [7] [L/P] | Peptide Concentration-induced 50% ANTS/DPX leakage at pH 4.8, 3POPC/1POPG Vesicle [8] [L/P] | Peptide Concentration-induced 50% ANTS/DPX leakage at pH 7.4, 3POPC/1POPG Vesicle [8] [L/P]
CC(C)C[C@@H](NC(=O)CN)C(=O)N[C@H](CC(C)C)C(=O)N[C@H](CC(=O)O)C(=O)N[C@H](CC(C)C)C(=O)N[C@H](CC(C)C)C(=O)N[C@H](CCC(=O)O)C(=O)N[C@H](CC(C)C)C(=O)N[C@H](CC(C)C)C(=O)N[C@H](CC(C)C)C(=O)N[C@H](CCCCN)C(=O)N[C@H](C)C(=O)N[C@H](C)C(=O)NCC(=O)N[C@H](Cc1c[nH]c2ccccc12)C(N)=O [D-form DEK] | 3.28 ± 0.21 | 0.44 ± 0.1 | 0.36 | 5.84 ± 0.04 |  |  |  |  |  |  |  |  |  | 
CC(C)C[C@@H](NC(=O)CN)C(=O)N[C@H](CC(C)C)C(=O)N[C@H](CC(=O)O)C(=O)N[C@H](CC(C)C)C(=O)N[C@H](CC(C)C)C(=O)N[C@H](Cc1c[nH]cn1)C(=O)N[C@H](CC(C)C)C(=O)N[C@H](CC(C)C)C(=O)N[C@H](CC(C)C)C(=O)N[C@H](CCCCN)C(=O)N[C@H](C)C(=O)N[C@H](C)C(=O)NCC(=O)N[C@H](Cc1c[nH]c2ccccc12)C(N)=O [D-form DHK] |  |  |  |  | 1.55 ± 0.37 | 0.32 ± 0.07 | 0.23 ± 0.04 | 1.24 ± 0.03 |  |  |  |  |  | 
CC(C)C[C@H](NC(=O)CN)C(=O)N[C@@H](CC(C)C)C(=O)N[C@@H](CC(=O)O)C(=O)N[C@@H](CC(C)C)C(=O)N[C@@H](CC(C)C)C(=O)N[C@@H](CCC(=O)O)C(=O)N[C@@H](CC(C)C)C(=O)N[C@@H](CC(C)C)C(=O)N[C@@H](CC(C)C)C(=O)N[C@@H](CCC(=O)O)C(=O)N[C@@H](C)C(=O)N[C@@H](C)C(=O)NCC(=O)N[C@@H](Cc1c[nH]c2ccccc12)C(N)=O [DEE] | 9.91 ± 0.44 | 5.55 ± 0.35 | 6.05 ± 2.76 | 61 ± 1.41 |  |  |  |  | 0.63 | 0.38 | 110 | 644 | 164 | 597
CC(C)C[C@H](NC(=O)CN)C(=O)N[C@@H](CC(C)C)C(=O)N[C@@H](CC(=O)O)C(=O)N[C@@H](CC(C)C)C(=O)N[C@@H](CC(C)C)C(=O)N[C@@H](CCC(=O)O)C(=O)N[C@@H](CC(C)C)C(=O)N[C@@H](CC(C)C)C(=O)N[C@@H](CC(C)C)C(=O)N[C@@H](Cc1c[nH]cn1)C(=O)N[C@@H](C)C(=O)N[C@@H](C)C(=O)NCC(=O)N[C@@H](Cc1c[nH]c2ccccc12)C(N)=O [DEH] | 10.5 ± 4.67 | 5.35 ± 1.91 | 3.6 ± 0.42 | 36.5 ± 3.92 |  |  |  |  | 0.75 | 1.50 | 63 | 620 | 193 | 548
CC(C)C[C@H](NC(=O)CN)C(=O)N[C@@H](CC(C)C)C(=O)N[C@@H](CC(=O)O)C(=O)N[C@@H](CC(C)C)C(=O)N[C@@H](CC(C)C)C(=O)N[C@@H](Cc1c[nH]cn1)C(=O)N[C@@H](CC(C)C)C(=O)N[C@@H](CC(C)C)C(=O)N[C@@H](CC(C)C)C(=O)N[C@@H](CCC(=O)O)C(=O)N[C@@H](C)C(=O)N[C@@H](C)C(=O)NCC(=O)N[C@@H](Cc1c[nH]c2ccccc12)C(N)=O [DHE] | 11.1 ± 1.91 | 3.75 ± 0.92 | 2.8 ± 0.14 | 17.2 ± 1.06 |  |  |  |  | 1.00 | 0.72 | 58 | 566 | 469 | 581
CC(C)C[C@H](NC(=O)CN)C(=O)N[C@@H](CC(C)C)C(=O)N[C@@H](Cc1c[nH]cn1)C(=O)N[C@@H](CC(C)C)C(=O)N[C@@H](CC(C)C)C(=O)N[C@@H](CCC(=O)O)C(=O)N[C@@H](CC(C)C)C(=O)N[C@@H](CC(C)C)C(=O)N[C@@H](CC(C)C)C(=O)N[C@@H](CCCCN)C(=O)N[C@@H](C)C(=O)N[C@@H](C)C(=O)NCC(=O)N[C@@H](Cc1c[nH]c2ccccc12)C(N)=O [HEK] | 6.95 ± 1.63 | 2.35 ± 1.06 | 3.45 ± 2.19 |  |  |  |  |  | 0.44 | 0.46 | 97 | 755 | 41. | 386

From US20250326794A1, “ANTI-CANCER LEUCINE-RICH PEPTIDES AND USES THEREOF” (KING'S COLLEGE LONDON, priority 2019, published 2025)
